Data taken from patent US12194080B2, “Methods for identification, assessment, prevention, and treatment of metabolic disorders using PM20D1 and N-lipidated amino acids” (Dana-Farber Cancer Institute, Inc., priority 2015, dated 2025).

Legend:
[1] = test system: primary inguinal fat cells, primary BAT cells, C2C12 cells, and U2OS cells; test: Uncoupled respiration cellular assays (variety of cell types); assay type: cell-based; conditions: N-acyl amino acids at 10-100 uM
Method: (§1) Cellular oxygen consumption rates were determined using an XF24 Extracellular Flux Analyzer (Seahorse Biosciences). Oligomycin was purchased from EMD Millipore, and FCCP and rotenone were purchased from Sigma. C2C12 or U2OS cells were seeded at 30,000 or 50,000 cells/well, respectively in an XF24 cell culture microplate (V7-PS, Seahorse Bioscience) and analyzed the following day. Primary iWAT or BAT adipocytes were seeded at 15,000 cells/well, differentiation was induced the following day as described, and the cells were analyzed on day 5. On the day of analysis, the cells were washed once with Seahorse respiration buffer (8.3 g/1 DMEM, 1.8 g/l NaCl, 1 mM pyruvate, 20 mM glucose, pen/strep), placed in 0.5 ml Seahorse respiration buffer, and incubated in a CO2-free incubator for 1 hr. Port injection solutions were prepared as follows (final concentrations in assay in parentheses): 10 μM oligomycin (1 μM final), […] amino acid (50 μM final), 2 μM FCCP (0.2 μM final), and 30 μM rotenone (3 μM final). The Seahorse program was run as follows: basal measurement, 3 cycles; inject port A (oligomycin), 3 cycles; inject port B (compounds), 8 cycles; inject port C (FCCP), 3 cycles; inject port D (rotenone), 3 cycles. Each cycle consisted of mix 4 min, wait 0 min, and measure 2 min. For data expressed as a percentage of oligomycin-treated basal, the respiration at cycle 6 was normalized to 100%, and the maximum respiration at any time point between cycles 7 and 15 inclusive was used.

C2C12 cells = test: Cellular oxygen consumption rate (uncoupled respiration), C2C12 cells; assay type: cell-based, mouse; conditions: 50 μM, after oligomycin 1 μM
Method: C2C12, U2O5, and 293A cells were cultured in DMEM with 10% FBS and pen/strep. Primary inguinal (iWAT) and brown (BAT) adipocytes were obtained as follows. The stromal-vascular fraction of inguinal (iWAT) pad from 4-12 week old male mice was dissected, minced, and digested for 45 min. at 37° C. in PBS containing 10 mM CaCl2, 2.4 U/ml dispase II (Roche), and 1.5 U/ml collagenase D (Roche). The stromal-vascular fraction of brown fat (BAT) pads from newborn (P1-P14) pups was dissected, minced, and digested for 45 min at 37° C. in PBS containing 1.3 mM CaCl2, 120 mM NaCl, 5 mM KCl, 5 mM glucose, 100 mM HEPES, 4% BSA, and 1.5 mg/ml collagenase B (Roche). Digested tissue was diluted with adipocyte culture media (DMEM/F-12, GlutaMAX™ supplement, Life Technologies, with 10% FBS and pen/strep) and centrifuged (600×g for 10 min.). The pellet was resuspended in 10 ml adipocyte culture media, strained through a 40 μm filter, and plated. Differentiation was induced by application of an adipogenic cocktail containing 5 μg/ml insulin (Sigma), 5 μM dexamethasone (Sigma), 250 μM isobutylmethylxanthine (Sigma), and 1 μM rosiglitazone (Cayman) for 2 days. Two days after induction, cells were maintained in adipocyte culture media containing 5 μg/ml insulin and 1 μM rosiglitazone.
as §1

mouse PM20D1 [2] = target: T1, mouse PM20D1 (Mus musculus, UniProt Q8C165); test: In vitro PM20D1-catalyzed N-acyl amino acid hydrolysis; assay type: biochemical; conditions: N-acyl amide substrate 100 μM
T1 construct: Full-length mouse Pm20d1 cDNA (GE Dharmacon) was subcloned with an in-frame C-terminal 6× His and FLAG® tag; made in house; host or cells: 293A (HEK293A) cells stably infected with retrovirus
T1 sequence (Q8C165 25-503): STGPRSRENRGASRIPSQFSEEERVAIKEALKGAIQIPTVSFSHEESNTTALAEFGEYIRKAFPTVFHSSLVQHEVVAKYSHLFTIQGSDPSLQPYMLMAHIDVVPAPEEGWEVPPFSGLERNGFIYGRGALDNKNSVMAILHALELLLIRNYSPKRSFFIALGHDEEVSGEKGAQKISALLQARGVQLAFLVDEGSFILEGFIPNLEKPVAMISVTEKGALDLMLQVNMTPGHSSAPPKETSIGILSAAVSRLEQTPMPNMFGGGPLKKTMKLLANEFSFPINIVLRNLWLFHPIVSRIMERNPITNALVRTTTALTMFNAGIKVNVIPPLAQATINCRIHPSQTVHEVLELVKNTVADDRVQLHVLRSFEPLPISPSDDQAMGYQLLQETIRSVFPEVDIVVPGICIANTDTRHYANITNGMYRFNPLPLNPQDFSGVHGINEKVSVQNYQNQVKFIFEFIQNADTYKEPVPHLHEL
Method: (§2) The concentrated media was centrifuged to remove debris (600×g, 10 min, 4° C.) and the supernatant containing PM20D1-flag was decanted into a new tube. PM20D1-Flag was immunoaffinity purified overnight at 4° C. from the concentrated media using magnetic Flag-M2 beads (Sigma Aldrich). The beads were collected, washed three times in PBS, eluted with 3× Flag peptide ([…] in PBS, Sigma Aldrich), aliquoted, and stored at −80° C. For the purification of human PM20D1-flag, hPM20D1-flag plasmid (Origene) was transiently transfected into 293A cells. After two days, the media was changed, harvested 24 h later, concentrated, and purified exactly as described above.
(§3) In vitro PM20D1-catalyzed synthesis of N-acyl amino acids was measured by incubating purified PM20D1 protein with oleate (1.5 mM) and phenylalanine (0.1 mM) in PBS (to 100 μl final volume) at 37° C. for 1.5 hrs. In vitro PM20D1-catalyzed N-acyl amino acid hydrolysis was measured by incubating purified PM20D1 protein with the indicated N-acyl amino acid (0.1 mM) in PBS (to 100 μl final volume) at 37° C. for 1.5 hrs. Reactions were terminated by placing the vials at −80° C. and the products generated in vitro were analyzed by mass spectroscopy (MS).
(§4) Briefly, frozen serum (30 μl) for polar metabolomic analyses were extracted in 160 μl of 1:1 acetonitrile/methanol with inclusion of internal standard D3, ^15N-serine (1 nmol). Activity assays (100 μl) were extracted in 400 μl 1:1 acetonitrile/methanol. Following 30 s of thorough vortexing and 1 min of bath sonication, the polar metabolite fraction (supernatant) was isolated by centrifugation at 13,000×g for 10 min. Ten μl of this supernatant was analyzed by SRM-based targeted LC-MS/MS, or untargeted LC-MS.
(§5) For separation of polar metabolites, normal-phase chromatography was performed with a […] column (50 mm×4.60 mm, Phenomenex). Mobile phases were as follows: Buffer A, acetonitrile; Buffer B, 95:5 water/acetonitrile with 0.1% formic acid or 0.2% ammonium hydroxide with 50 mM ammonium acetate for positive and negative ionization mode, respectively. The flow rate for each run started at 0.2 ml/min for 2 min, followed by a gradient starting at 0% B and increasing linearly to 100% B over the course of 15 min with a flow rate of 0.7 ml/min, followed by an isocratic gradient of 100% B for 10 min at 0.7 ml/min before equilibrating for 5 min at 0% B with a flow rate of 0.7 ml/min. MS analysis was performed with an electrospray ionization (ESI) source on an Agilent 6430 QQQ LC—MS/MS. The capillary voltage was set to 3.5 kV, and the fragmentor voltage was set to 100 V. The drying gas temperature was 325° C., the drying gas flow rate was 10 l/min, and the nebulizer pressure was 45 psi. For polar targeted and untargeted metabolomic analysis, representative metabolites were quantified by SRM of the transition from precursor to product ions (corresponding to amino acid fragment) at associated collision energies. Several representative fragmentation ions are as follows: C18:1-Ala, 352>88; C18:1-Gly, 338>74; C18:1-Phe, 428>164; C18:1-Leu/Ile, 394>130; C20:4-Phe, 450>164; C20:4-Leu/Ile, 416>130. Untargeted LC-MS was performed by scanning a mass range of m/z 50-1200, and data were exported as mzdata files and uploaded to XCMSOnline (xcmsserver.nutr.berkeley.edu) to identify metabolites that were differentially changed. For targeted metabolomics analysis, metabolites were quantified by integrating the area under the peak and were normalized to internal standard values corresponding to 1 nmol D3, ^15N-serine.

mouse PM20D1 [3] = target: T1, mouse PM20D1; test: In vitro PM20D1-catalyzed synthesis of N-acyl amino acids; assay type: biochemical; conditions: for substrate of the PM20D1 synthase reaction: head group 100 μM, oleate or arachidonate 1.5 mM, C18:1-CoA 0.7 mM
Method: as §2, §3, §4, §5

Row | Compound | uncoupled respiration in cells [1] | uncoupling activity (uncoupled respiration) (C2C12 cells) | also measured
1 | CCCCCC[C@@H](O)C/C=C\CCCCCCCC(=O)N[C@@H](C)c1ccccc1 [(S)-alpha-methylbenzyl ricinoleamide, reference compound] | inactive |  | 
2 | CCCCCCCC/C=C\CCCCCCCC(=O)N[C@@H](CCC(N)=O)C(=O)O [C18:1-Gln, Oleoyl-L-glutamine] |  | possessed the uncoupling activity | 
3 | CCCCCCCC/C=C\CCCCCCCC(=O)NCC(=O)O [C18:1-Gly] |  |  | substrate of the PM20D1 hydrolysis reaction (mouse PM20D1 [2]): substrates
4 | CCCCCCCC/C=C\CCCCCCCC(=O)N[C@@H](CCCCN)C(=O)O [C18:1-Lys, Oleoyl-L-lysine] |  | not | 
5 | CCCCCCCC/C=C\CCCCCCCC(=O)N[C@@H](CO)C(=O)O [C18:1-Ser] |  |  | substrate of the PM20D1 hydrolysis reaction (mouse PM20D1 [2]): substrates
6 | CCCCC/C=C\C/C=C\C/C=C\C/C=C\CCCC(=O)NC [N-arachidonoyl N-methyl amide, N-methyl N-arachidonoyl amide, reference compound] | inactive | did not stimulate uncoupled respiration | 
7 | CCCCC/C=C\C/C=C\C/C=C\C/C=C\CCCC(=O)NCCc1ccc(O)c(O)c1 [N-arachidonoyl dopamine, reference compound] | inactive | did not stimulate uncoupled respiration | 
8 | CCCCC/C=C\C/C=C\C/C=C\C/C=C\CCCC(=O)NCCCC(=O)O [N-arachidonoyl gamma amino butyric acid] | increased uncoupled respiration | stimulate uncoupled respiration | 
9 | CCCCC/C=C\C/C=C\C/C=C\C/C=C\CCCC(=O)N[C@@H](CO)C(=O)O [N-arachidonoyl serine] | increased uncoupled respiration |  | 
10 | CCCCC/C=C\C/C=C\C/C=C\C/C=C\CCCC(=O)NCCS(=O)(=O)O [N-arachidonoyl taurine, reference compound] | inactive | did not stimulate uncoupled respiration | 
11 | CCCCC/C=C\C/C=C\CCCCCCCC(=O)N[C@@H](Cc1ccccc1)C(=O)O [N-linoleoyl phenylalanine] | increased uncoupled respiration |  | 
12 | CCCCCCCC/C=C\CCCCCCCC(=O)NCCO [N-oleoyl ethanolamine, reference compound] | inactive |  | substrate of the PM20D1 hydrolysis reaction (mouse PM20D1 [2]): does not hydrolyze; substrate of the PM20D1 hydrolysis reaction (mouse PM20D1 [2]; listed as C18:1-EA): not a PM20D1 substrate
13 | CCCCCCCC/C=C\CCCCCCCC(=O)N[C@@H](Cc1ccccc1)C(N)=O [N-oleoyl phenylalanine amide, (S)-N-(1-amino-1-oxo-3-phenylpropan-2-yl)oleamide] | inactive | completely abrogated uncoupling activity | 
14 | CCCCCCCC/C=C\CCCCCCCC(=O)N[C@@H](Cc1ccccc1)C(=O)OC [N-oleoyl phenylalanine methyl ester, Methyl oleoyl-L-phenylalaninate] | inactive | completely abrogated uncoupling activity | 
15 | CCCCCCCCCCCCCCCC(=O)N[C@@H](Cc1ccccc1)C(=O)OC [N-palmitoyl phenylalanine methyl ester] | inactive |  | 
16 | N[C@@H](Cc1ccccc1)C(=O)O [Phe, phenylalanine] |  |  | substrate of the PM20D1 synthase reaction (mouse PM20D1 [3]): most efficiently converted to its corresponding N-acyl amino acid product
17 | CC(=O)[O-].CC(=O)[O-].[Zn+2] [Zn(OAc)2] |  |  | effect on PM20D1 reaction rate (mouse PM20D1 [3]; 2 mM added to the reaction in PBS): does not augment reaction rate and may decrease the rate
18 | NCCO [ethanolamine] |  |  | substrate of the PM20D1 synthase reaction (mouse PM20D1 [3]): not substrates for the synthase reaction
19 | N[C@@H](CCC(=O)O)C(=O)O [glutamate] |  |  | substrate of the PM20D1 synthase reaction (mouse PM20D1 [3]): not substrates for the synthase reaction
20 | CCCCC/C=C\C/C=C\C/C=C\C/C=C\CCCC(=O)N[C@H](C)CO [methanandamide, R(+)-methanandamide, reference compound] | inactive | did not stimulate uncoupled respiration | 
21 | CCCCC/C=C\C/C=C\C/C=C\C/C=C\CCCCOC(CO)CO [noladin ether, reference compound] | inactive |  | 
